Experimental data as given in ChEMBL document CHEMBL3886773, “Immune system modulators” (2016).

biological target: T1, Toll-like receptor 9 (Homo sapiens, UniProt Q9NR96); experiment: Antagonism Assay: Day 1: A cell suspension of HEK-Blue™-hTLR9 cells at ~450,000 cells per ml in test medium which contained 5% (v/v) heat inactivated FBS was prepared. 180 μl of cell suspension (Ë¿80,000 cells) was added per well of a flat-bottom 96-well plate and place in an incubator at 37° C. for overnight. Day 2: Test compounds were serially diluted in test medium, generally starting at 10 μM, and diluting by 3 fold in a 96 well master plate. 20 μl of diluted test compound was transferred using a 12 channel multi-channel pipet to the cell plate and incubated at 37° C. for 1 hour. Then 20 μl of an hTLR9 agonist (such as ODN 2006, 1 μM) was added to each well and the plate incubated at 37° C. overnight. Day 3: Invivogen's QUANTI-Blue™ was prepared following the manufacturer's instructions. […] of resuspended QUANTI-Blue™ was added per well of a flat bottom 96-well plate. 20 μl per well of induced HEK-Blue™-hTLR9 cells supernatant was then added to the plate and the plate was incubated at 37° C. for 1-3 h. SEAP levels were determined using a spectrophotometer at 620 nm.
T1 sequence (Q9NR96 whole entry): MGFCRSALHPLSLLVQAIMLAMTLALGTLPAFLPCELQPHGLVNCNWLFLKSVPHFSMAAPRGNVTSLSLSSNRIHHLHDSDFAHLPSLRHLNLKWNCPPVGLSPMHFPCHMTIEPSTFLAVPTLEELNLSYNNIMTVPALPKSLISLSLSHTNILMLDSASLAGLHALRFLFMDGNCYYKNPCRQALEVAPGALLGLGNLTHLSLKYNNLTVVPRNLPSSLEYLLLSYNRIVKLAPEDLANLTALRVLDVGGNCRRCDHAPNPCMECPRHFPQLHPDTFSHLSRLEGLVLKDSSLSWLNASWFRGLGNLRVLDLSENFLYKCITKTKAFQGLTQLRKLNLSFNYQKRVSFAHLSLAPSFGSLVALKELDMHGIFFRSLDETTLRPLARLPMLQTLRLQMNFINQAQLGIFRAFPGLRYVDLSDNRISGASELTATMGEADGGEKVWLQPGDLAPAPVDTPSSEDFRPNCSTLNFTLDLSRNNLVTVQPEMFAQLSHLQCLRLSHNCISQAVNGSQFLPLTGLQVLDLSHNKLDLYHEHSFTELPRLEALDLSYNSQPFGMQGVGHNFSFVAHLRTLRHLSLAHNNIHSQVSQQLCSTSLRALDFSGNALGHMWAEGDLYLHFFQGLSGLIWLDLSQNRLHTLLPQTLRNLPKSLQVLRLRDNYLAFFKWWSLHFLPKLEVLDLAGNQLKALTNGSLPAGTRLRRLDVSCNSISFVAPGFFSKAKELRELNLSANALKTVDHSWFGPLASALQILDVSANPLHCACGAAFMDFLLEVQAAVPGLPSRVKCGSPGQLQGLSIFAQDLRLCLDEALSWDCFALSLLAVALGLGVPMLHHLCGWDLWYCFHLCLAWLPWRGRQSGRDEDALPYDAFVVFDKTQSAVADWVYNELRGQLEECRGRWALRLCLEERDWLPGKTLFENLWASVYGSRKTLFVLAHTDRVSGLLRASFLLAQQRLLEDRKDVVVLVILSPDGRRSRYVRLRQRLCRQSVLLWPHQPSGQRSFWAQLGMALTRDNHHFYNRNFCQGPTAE

Compared with `CN1CCN(c2cnc3c(NCCSC(=N)N)nc(-c4ccccc4)nc3n2)CC1`, `CN1CCN(c2cnc3c(NCCCn4cncn4)nc(-c4ccccc4)nc3n2)CC1` is lower in IC50: over 10000 nM for the first, 2950 nM for the second.

Going from `O=c1c(-c2ccccc2)nc2c(NCCN3CCOCC3)nc(-c3ccccc3)nc2n1CCN1CCOCC1` to `N#Cc1ccc(-c2nc3c(NCCN4CCOCC4)nc(-c4ccccc4)nc3n(CCN3CCOCC3)c2=O)cc1`, the IC50 rises from 137 nM to 487 nM (3.6-fold).

First: CN(C)CCN(C)c1nc(-c2ccccc2)nc2nc(N3CCN(C)CC3)cnc12
Second: Cc1cnc(CNc2nc(-c3ccccc3)nc3nc(N4CCN(C)CC4)cnc23)cn1
The IC50 of the first is 22-fold lower: 112 nM for the first, 2490 nM for the second.

Compared with `CN1CCN(c2nc3nc(-c4ccccc4)nc(NCCN4CCOCC4)c3nc2Cl)CC1`, `CN1CCN(c2nc3nc(-c4ccccc4)nc(NCCN4CCOCC4)c3nc2NCCN2CCOCC2)CC1` is 5.1-fold higher in IC50: 62 nM for the first, 317 nM for the second.

Compared with `CN1CCN(c2ccc(-c3nc(NCCN4CCOCC4)c4nccnc4n3)cc2)CC1`, `CN1CCN(CCNc2nc(-c3ccccc3)nc3nc(N4CCN(C)CC4)cnc23)CC1` is 2.5-fold lower in IC50: 285 nM for the first, 113 nM for the second.

First: O=c1c(C(F)(F)F)nc2c(NCCN3CCOCC3)nc(-c3ccccc3)nc2n1CCN1CCOCC1
Second: Cc1nc2c(NCCN3CCOCC3)nc(-c3ccccc3)nc2n(CCN2CCOCC2)c1=O
The IC50 of the first is 1.5-fold higher: 3820 nM for the first, 2480 nM for the second. The second is the more potent here.

Compared with `CN1CCN(c2cnc3c(NCCCNc4nc(N)nc(N)n4)nc(-c4ccccc4)nc3n2)CC1`, `CN1CCN(c2cnc3c(NCCc4ccccn4)nc(-c4ccccc4)nc3n2)CC1` is 11-fold higher in IC50: 198 nM for the first, 2180 nM for the second.

Going from `CN1CCN(c2cnc3c(NCCc4ccncc4)nc(-c4ccccc4)nc3n2)CC1` to `CN1CCN(CCNc2nc(-c3ccccc3)nc3c2nc(-c2ccccc2)c(=O)n3CCN2CCN(C)CC2)CC1`, the IC50 falls from 991 nM to 124 nM (8-fold).

Going from `CN1CCN(c2nc3nc(-c4ccc(C(C)(C)C)cc4)nc(NCCN4CCOCC4)c3nc2NCCN2CCOCC2)CC1` to `O=c1c(-c2cc(F)cc(F)c2)nc2c(NCCN3CCOCC3)nc(-c3ccccc3)nc2n1CCN1CCOCC1`, the IC50 rises from 273 nM to 901 nM (3.3-fold). The first is the more potent here.
